# According to publication PMC5578373, “Inhibitory Kappa B Kinase α (IKKα) Inhibitors That Recapitulate Their Selectivity in Cells against Isoform-Related Biomarkers” (Journal of Medicinal Chemistry, 2017):
# Entries after “also recorded” stand apart in the source; their conditions may differ. Where two headings read alike, the source gives them in different places.
# Assays:
# [1] = system: IKKα-driven p100 phosphorylation in U2OS cells; assay: FCS-stimulated p100 phosphorylation (Ser866/870) in U2OS cells, Western blot; type: cell-based, human; settings: 1 h pretreatment, FCS (10%) for 4 h, blots quantified, read-out: IC50 for inhibition of p100 phosphorylation
# Method: (§1) Two IKKβ-dependent readouts were selected to assess selectivity over IKKβ. First, TNFα stimulates IκBα degradation through activation of IKKβ and if IKKβ is inhibited, then a band corresponding to the IκBα protein should be evident by Western analysis. Second, IKKβ phosphorylates p65 on Ser536, which can also be assessed by Western blot analysis. Only at the highest concentration (100 μM) of 48 was IκBα degradation and p65 (Ser536) phosphorylation inhibited (Figure 9b). Even at this high concentration, these effects were not apparent following pretreatment with 47 (Figure 10b).
# Figure 9 Effect of compound 48 on (a) FCS-stimulated noncanonical and (b) TNF-α-induced canonical NF-kB activation in U2OS cells. Cells were pretreated with 48 1 h prior to stimulation with FCS (10%) for 4 h or TNF-α (10 ng/mL) for 30 min. Whole cell lysate were prepared, separated by SDS-PAGE, and assessed for (a) inhibition of p100 phosphorylation (Ser866/870) and (b) IkB-α and p-p65 (Ser536) status. […] The results are representative of three independent experiments.
# Figure 10 Effect of compound 47 on (a) FCS-stimulated noncanonical and (b) TNF-α-induced canonical NF-kB activation in U2OS cells. Cells were pretreated with 47 1 h prior to stimulation with FCS (10%) for 4 h or TNF-α (10 ng/mL) for 30 min. Whole cell lysate were prepared, separated by SDS-PAGE, and assessed for (a) inhibition of p100 phosphorylation (Ser866/870) and (b) IkB-α and p-p65 (Ser536) status. […] The results are representative of three independent experiments.
# (§2) U2OS cells were cultured with McCoy’s 5A modified medium and MEF were cultured with DEME medium containing 10% (v/v) FCS and medium was changed every 2 d thereafter until cells became confluent. Cells were incubated at 37 °C in humidified air with 5% CO2 and rendered quiescent by serum deprivation for 24 h prior to stimulation in serum-free medium.
# (§3) Whole cell lysates were prepared from U2OS and status of IκBα, p65, p-p65 (Ser536), and p-p100 (Ser 866/870) assessed by Western blotting as described in Mackenzie et al. (2007).[46]
# [2] = system: IKKβ-dependent IκBα degradation in U2OS cells; assay: TNFα-induced IκBα degradation in U2OS cells, Western blot; type: cell-based, human; settings: highest concentration 100 μM, TNF-α (10 ng/mL) 30 min
# Method: as §1
# (§4) Figure 9 Effect of compound 48 on (a) FCS-stimulated noncanonical and (b) TNF-α-induced canonical NF-kB activation in U2OS cells. […] Whole cell lysate were prepared, separated by SDS-PAGE, and assessed for (a) inhibition of p100 phosphorylation (Ser866/870) and (b) IkB-α and p-p65 (Ser536) status. […]
# (§5) Figure 10 Effect of compound 47 on (a) FCS-stimulated noncanonical and (b) TNF-α-induced canonical NF-kB activation in U2OS cells. […] Whole cell lysate were prepared, separated by SDS-PAGE, and assessed for (a) inhibition of p100 phosphorylation (Ser866/870) and (b) IkB-α and p-p65 (Ser536) status. […]
# as §3
# [3] = system: IKKβ-dependent p65 (Ser536) phosphorylation in U2OS cells; assay: TNFα-induced p65 (Ser536) phosphorylation in U2OS cells, Western blot; type: cell-based, human; settings: highest concentration 100 μM, TNF-α (10 ng/mL) 30 min
# Method: as §1, §4, §5, §3
# [4] = system: IKKα-regulated NF-κB transcriptional activation in IKKβ−/− MEFs; assay: IL-1β-stimulated NF-κB-luciferase transcriptional activity in IKKβ knockout MEFs; type: cell-based, mouse
# Method: To provide further evidence for cellular activity, mouse embryonic fibroblasts lacking the IKKβ kinase subunit were utilized to investigate the potency of both compounds against agonist-stimulated IKKα-regulated NF-κB transcriptional activation. Cells were infected with an adenovirus encoding an NF-κB-luciferase promoter gene. NF-κB transcriptional activity driven by IKKα was stimulated specifically using IL-1β,[41] and the ability of the compounds to inhibit this response was assessed. […] As IKKα plays a lesser role in the canonical NF-κB cascade,[42] particularly the rapid and transient stimulated degradation of IκBα, selective IKKα inhibitors should not affect TNF-α induced IκBα degradation and p65 phosphorylation.
# as §2
# An adenoviral vector encoding NFκB-luciferase (Adv.NFκB-Luc) was purchased from Vector Biolabs (University of Pennsylvania, Philadelphia, US). Large-scale production of high titer recombinant adenovirus was performed by routine methods.[47] IKKβ knockout mouse embryonic fibroblasts (MEFs; kindly provided by Prof. I. Verma, UCSD, USA) were counted when approximately 60–70% confluent in T75 cm^2 flasks and infected with adenovirus up to 300 pfu/cell^–1 for 24 h in 10% DMEM. Cells were then lifted from the flasks and plated into 96-well clear bottom, black luciferase plates and allowed to settle for 24 h before serum starved overnight. Cells were then stimulated with the appropriate agonists for the indicated times and reactions terminated by addition of lysis buffer containing 0.2 mM luciferin substrate. Relative light units (RLU) were measured using a Trilux microbeta counter (luminometer).
compound,measurement,setting,value
"N#Cc1c[nH]c2nc(N)nc(-c3ccc(CO)cc3)c12 [Compound 47, 2-Amino-4-(4-hydroxymethyl)phenyl-7H-pyrrolo[2,3-d]pyrimidine-5-carbonitrile]",IC50,[1],19.1 µM
same,IC50,"[1]; Homo sapiens, U2OS",13.9 µM
same,inhibition of TNFα-stimulated IκBα degradation,[2],not apparent; also recorded: did not affect
same,inhibition of TNFα-stimulated p65 (Ser536) phosphorylation,[3],not apparent; also recorded: did not affect
same,% stimulation,"[4]; 100 μM compound, 1 h pretreatment, IL-1β (10 ng/mL) 6 h, IL-1β + DMSO = 100, mean ± SEM",–40.9 ± 4.6 %
same,inhibition of NF-κB transcriptional activity,[4]; maximal concentrations of 50–100 μM,approximately 81%
same,% stim,"[4]; maximal concentrations of 50–100 μM, Il-1β+DMSO = 100%",18.79 ± 7.2%
